One data set concerns liver fibrosis. Kind of data set: In vivo pharmacodynamic experiment, CCl4 liver fibrosis model. Conditions: CCl4 mice, tail vein twice a week for eight weeks, Cur 17 mg kg^−1. Here is the method: The mice were divided into five groups with five in each group randomly. The liver fibrosis model was established by injecting carbon tetrachloride (CCl4, 40% in olive oil, 1 mL kg^−1) intraperitoneally twice a week for four weeks. The mice were only administrated the same dosage of olive oil in control group. […] After treatment through veil tail, the mice were sacrificed and blood and livers were collected for the following study. After embedding in paraffin, the liver samples were cut into 5 μm slices. Then, liver slices were stained with hematoxylin–eosin staining (H&E) and Sirius Red staining solution for 2 h. After dehydration and fixation, the slices were observed and photographed by microscope.

The subject of a further data set is red blood cells. Kind of data set: Hemolysis test. It counts as cell-based, mouse. The settings on record: 0.15–5 mg mL^−1, 37 °C, 1 hour. How it is done:
The mixture was then centrifuged at 3000 rpm for 10 min. Finally, UV spectrophotometer was used to monitor the absorbance at 541 nm to investigate the hemolysis. Deionized water and 0.9% NaCl were used as the positive and negative control, respectively. The hemolysis ratio was calculated as following: [drawing 4] […]

Data set [1] is described as follows: In vivo pharmacokinetics study, tail vein. On the set-up: species or system SD rats. Conditions: SD, rat, plasma; intravenous, 17 mg kg^−1 Cur, n = 3. Here is the method: Pharmacokinetics were studied in SD rats. SD rats were randomly divided into three groups with each group of three rats. […] Blood samples (0.5 mL) were extracted from the rat orbital sinus into heparinized centrifuge tubes at 3, 5, 10, 15, 30, 45, 60, 120 min and then centrifuged at 8000 rpm for 5 min to obtain the upper plasma. After that, Cur in plasma samples were extracted by adding ethyl acetate and vertexing for 5 min, then centrifuged at 5000 rpm for 5 min to get supernatant. Finally, the amount of Cur in the supernatant was measured by high-performance liquid chromatography (HPLC) based on established analytical method (SI). Various pharmacokinetic parameters (AUC, MRT, t1/2, Cmax, CL, and V) were calculated according to the analysis of DAS3.0 software.

The nature of data set [2]: In vitro release of curcumin, membrane dialysis. It counts as physicochemical. Conditions: 30% ethanol in PBS pH7.4, 37 °C. Here is the method:
The membrane dialysis method was used for the drug release profile of CTPP–PEG–PCT. […] The end-sealed dialysis bag was placed in 30% ethanol in PBS (0.1 M, pH7.4) was used as dissolution medium at 37 °C, and medium was collected at determined time point. The amount of Cur released in the medium was monitored by UV-vis spectroscopy, and the experiments were repeated for three times.

Turning to `COc1cc(/C=C/C(=O)CC(=O)/C=C/c2ccc(O)c(OC)c2)ccc1O` [Cur, Curcumin], the “serum levels of AST and ALT vs saline group” value in the data set with liver fibrosis is “decreased significantly”. Moreover, the hemolysis ratio result with red blood cells is “less than 5%”. In data set [1], this compound had an area under the curve AUC(0-inf) of 5610 ng·h/mL, an AUC(0-t) of 5280 ng·h/mL, a Cmax of 12900 ± 1510 ng/mL and an MRT of 45.9 min. In data set [1], the clearance was 50 ± 6 mL/min/kg and the half-life came out at 48.1 ± 14.8 min. Moreover, in data set [2], the “in vitro drug release behaviour” value is “released quickly”.

As a reminder, the AUC(0-inf) is total exposure, with the tail of the curve extrapolated. The low end stands for low exposure, the high end for high exposure. As usually defined, the AUC(0-t) is exposure summed from dosing to a finite time, without extrapolation to infinity. Higher therefore signals high exposure. For orientation: Cmax means the highest concentration seen after dosing. In general, MRT refers to a mean duration of stay, worked out from the concentration-time curve. In general, clearance refers to the rate of elimination divided by the concentration. The term half-life denotes how long it takes for the measured level to halve.

Values taken from article PMC8694685 (RSC Advances, 2021).
